From patent US5726177A, “Indole-derived arylpiperazines as ligands for 5HT1 -like, 5HT1B and 5HT1D receptors” (Pierre Fabre Medicament, priority 1993, dated 1998)
pEC50, pKi: −log10 of the molar value. Where a name gives a salt, the structure may show the parent alone. Read-outs that look alike come from different tables or passages of the source.

Experiments:
5-HT1B receptor = molecular target: T1, 5-HT1B receptor (Didelphis virginiana, UniProt P35404); experiment: Agonist activity: inhibition of forskolin-stimulated cAMP formation mediated by a 5-HT1B receptor in OK kidney epithelial cell line; format: cell-based
T1 construct: mediated by a 5-HT1B receptor, in an OK kidney epithelial cell line; endogenous in cells; host or cells: OK kidney epithelial cell line
Procedure: STUDY OF THE AGONIST ACTIVITY WITH RESPECT TO THE 5-HT1B RECEPTORS
The measurements were carried out with respect to the inhibition of the formation of cAMP stimulated by forskolin, mediated by a 5-HT1B receptor, in an OK kidney epithelial cell line as described elsewhere (P. J. Pauwels and C. Palmier, Neuropharmacology, awaiting publication).

human 5HT1Db receptor [1] = molecular target: T2, human 5HT1Db receptor (Homo sapiens, UniProt P28222); experiment: cell-based
Procedure: (§1) Human 5HT1Da and 5HT1Db receptors were cloned according to the sequences published by M. Hamblin and M. Metcalf, Mol. Pharmacol., 40, 143 (1991) and Weinshenk et al., Proc. Natl. Acad. Sci., 89, 3630 (1992).
(§2) The transient transfection and the stable transfection of the genes of these receptors was carried out in Cos-7 and CHO-K1 cell lines by using an electroporator.
The inhibition of the formation of cyclic AMP (stimulated by forskolin) mediated by the human 5HT1Db receptor was studied in CHO-K1 cells transfected by the receptor according to the technique described previously for the 5HT1B receptor (P. Pauwels and C. Palmier, Neuropharmacology, 33, 67, 1994).

human 5HT1Db receptor [2] = molecular target: T2, human 5HT1Db receptor; experiment: Binding to cloned human 5HT1Db receptor
Procedure: as §1, §2
(§3) The binding of the derivatives of the present invention with human 5HT1Da, 5HT1Db and 5HT1A receptors was studied according to the method described by P. Pauwels and C. Palmier (Neuropharmacology, 33, 67, 1994).
(§4) The incubation media for these binding measurements comprise 0.4 ml of cell membrane preparation, 0.05 ml of a tritiated ligand [[3H]-SCT (final concentration: 2 nM) for the 5HT1Da and 5HT1Db receptors and [3H]-80H-DPAT (final concentration: 1 nM) for the 5HT1A receptor] and 0.05 ml of the molecule to be tested (final concentrations from 0.1 nM to 1000 nM) or 10 μM (final concentration) of serotonin (5HT1Da and 5HT1Db) or 1 μM (final concentration) of spiroxatrin (5HT1A ).

human 5HT1Da receptor = human 5HT1Da receptor (Homo sapiens, UniProt P28221); experiment: Binding to cloned human 5HT1Da receptor
Procedure: as §1, §2, §3, §4

human 5HT1A receptor = molecular target: T3, human 5HT1A receptor (Homo sapiens, UniProt P08908); experiment: Binding to human 5HT1A receptor (HeLa HA7 cell line)
T3 sequence (P08908 1-422): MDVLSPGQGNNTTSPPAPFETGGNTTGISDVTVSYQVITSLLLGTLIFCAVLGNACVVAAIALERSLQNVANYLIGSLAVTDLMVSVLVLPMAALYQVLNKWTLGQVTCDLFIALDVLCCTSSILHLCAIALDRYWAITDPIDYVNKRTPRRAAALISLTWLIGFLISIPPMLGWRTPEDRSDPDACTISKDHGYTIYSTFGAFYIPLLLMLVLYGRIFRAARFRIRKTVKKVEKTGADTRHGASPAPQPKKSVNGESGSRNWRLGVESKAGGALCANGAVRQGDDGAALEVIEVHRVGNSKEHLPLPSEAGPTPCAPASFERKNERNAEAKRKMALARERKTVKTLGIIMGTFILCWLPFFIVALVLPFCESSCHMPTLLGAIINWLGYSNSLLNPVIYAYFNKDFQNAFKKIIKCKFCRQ
Procedure: The HeLa HA7 cell line expressing the 5HT1A human receptor was obtained from Tulco (Duke Univ., Durham, N.C., USA) and cultured according to the method of Fargin et al., J. Biol. Chem., 264, 14848 (1989).
as §3, §4

[3] = human 5HT1Db, CHO-K1 cells, read-out: EC50 (Inhibition of the 5HT1Db cyclase stimulated by forskolin)
[4] = human cloned receptor, [3H] ligand 2 nM, read-out: Ki 5HT1Db
[5] = human cloned receptor, [3H] ligand 2 nM, read-out: Ki 5HT1Da
[6] = HeLa HA7 cells, [3H]-DPAT ligand 1 nM, read-out: Ki 5HT1A

Chain of human 5HT1Da receptor (P28221 whole entry): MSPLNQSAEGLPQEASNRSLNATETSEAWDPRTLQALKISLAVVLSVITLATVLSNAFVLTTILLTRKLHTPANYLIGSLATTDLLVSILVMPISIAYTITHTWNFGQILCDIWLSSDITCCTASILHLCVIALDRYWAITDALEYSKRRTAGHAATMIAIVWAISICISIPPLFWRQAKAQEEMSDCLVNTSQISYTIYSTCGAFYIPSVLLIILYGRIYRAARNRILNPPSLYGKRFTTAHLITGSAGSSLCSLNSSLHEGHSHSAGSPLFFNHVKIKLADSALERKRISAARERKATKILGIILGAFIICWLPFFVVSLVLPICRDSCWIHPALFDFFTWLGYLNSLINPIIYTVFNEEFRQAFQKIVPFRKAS
T2 sequence (P28222 whole entry): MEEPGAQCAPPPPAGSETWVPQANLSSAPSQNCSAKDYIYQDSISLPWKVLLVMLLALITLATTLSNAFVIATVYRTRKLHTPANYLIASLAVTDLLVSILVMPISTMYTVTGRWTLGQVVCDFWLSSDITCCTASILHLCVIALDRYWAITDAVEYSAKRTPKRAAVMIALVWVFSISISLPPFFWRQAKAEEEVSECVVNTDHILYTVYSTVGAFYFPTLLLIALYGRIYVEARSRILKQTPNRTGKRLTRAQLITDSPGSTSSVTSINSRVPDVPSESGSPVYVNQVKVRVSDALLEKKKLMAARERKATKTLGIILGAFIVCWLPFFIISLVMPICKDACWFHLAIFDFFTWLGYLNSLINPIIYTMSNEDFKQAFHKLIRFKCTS
T1 sequence (P35404 whole entry): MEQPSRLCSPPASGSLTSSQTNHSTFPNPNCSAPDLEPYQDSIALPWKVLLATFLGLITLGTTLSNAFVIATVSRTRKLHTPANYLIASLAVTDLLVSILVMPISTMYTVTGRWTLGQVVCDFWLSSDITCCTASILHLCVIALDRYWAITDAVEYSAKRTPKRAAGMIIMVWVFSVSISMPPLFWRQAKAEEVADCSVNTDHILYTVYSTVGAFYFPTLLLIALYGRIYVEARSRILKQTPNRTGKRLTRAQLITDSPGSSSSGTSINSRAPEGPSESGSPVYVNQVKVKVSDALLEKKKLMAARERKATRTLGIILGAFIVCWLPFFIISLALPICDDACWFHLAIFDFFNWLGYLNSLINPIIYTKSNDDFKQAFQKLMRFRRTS

| Compound | pEC50 (5-HT1B receptor) | pEC50 (human 5HT1Db receptor [1]; [3]) | pKi (human 5HT1Db receptor [2]; [4]) | pKi (human 5HT1Da receptor; [5]) | other results |
| --- | --- | --- | --- | --- | --- |
| NCCc1c[nH]c2ccc(OCC(=O)N3CCN(c4ccc([N+](=O)[O-])cc4)CC3)cc12 [Example 1, 2-[3-(2-Aminoethyl)-1H-indol-5-yloxy]-1-[4-(4-nitrophenyl)piperazin-1-yl]ethanone hydrochloride] | 8.92 to 9.52 | 8.92 | 9.00 | 9.30 | – |
| NCCc1c[nH]c2ccc(OCC(=O)N3CCN(c4ccc(N)cc4)CC3)cc12 [Example 2, 2-[3-(2-Aminoethyl)-1H-indol-5-yloxy]-1-[4-(4-aminophenyl)piperazin-1-yl]ethanone hydrochloride] | 8.92 to 9.52 | – | – | – | – |
| CC(=O)Nc1ccc(N2CCN(C(=O)COc3ccc4[nH]cc(CCN)c4c3)CC2)cc1 [Example 3, N-[4-(4-{2-[3-(2-Aminoethyl)-1H-indol-5-yloxy]acetyl}piperazin-1-yl)phenyl]acetamide hydrochloride] | 8.92 to 9.52 | – | – | – | – |
| CS(=O)(=O)Nc1ccc(N2CCN(C(=O)COc3ccc4[nH]cc(CCN)c4c3)CC2)cc1 [Example 5, N-[4-(4-{2-[3-(2-Aminoethyl)-1H-indol-5-yloxy]acetyl}piperazin-1-yl)phenyl]methanesulfonamide hydrochloride] | – | 8.19 | 8.49 | 9.15 | – |
| NCCc1c[nH]c2ccc(OCC(=O)N3CCN(c4ccc(NS(=O)(=O)c5ccc([N+](=O)[O-])cc5)cc4)CC3)cc12 [Example 26, N-[4-(4-{2-[3-(2-Aminoethyl)-1H-indol-5-yloxy]acetyl}piperazin-1-yl)phenyl]-4-nitrophenylsulfonamide hydrochloride] | – | 8.19 | 9.30 | 9.60 | pKi (human 5HT1A receptor; [6]): 7.78 |
| NCCc1c[nH]c2ccc(OCC(=O)N3CCN(c4ccc(NC(=O)Oc5ccccc5)cc4)CC3)cc12 [Example 33, N-[4-(4-{2-[3-(2-Aminoethyl)-1H-indol-5-yloxy]acetyl}-piperazin-1-yl)phenyl]phenylcarbamate] | – | – | – | – | pEC50 (human 5HT1Db receptor [1]): 8.05; pKi (human 5HT1A receptor): 7.41; pKi (human 5HT1Db receptor [2]): 8.70; pKi (human 5HT1Da receptor): 8.55 |
| CS(=O)(=O)Nc1ccc(N2CCN(CCOc3ccc4[nH]cc(CCN)c4c3)CC2)cc1 [Example 41, N-[4-(4-{2-[3-(2-Aminoethyl)-1H-indol-5-yloxy]ethyl}piperazin-1-yl)phenyl]methanesulfonamide hydrochloride] | – | 8.59 | 9.15 | 8.96 | pKi (human 5HT1A receptor; [6]): 7.55 |
| CS(=O)(=O)Nc1ccc(N2CCN(C(=O)CCCCCOc3ccc4[nH]cc(CCN)c4c3)CC2)cc1 [Example 59, N-[4-(4-{6-[3-(2-Aminoethyl)-1H-indol-5-yloxy]hexanoyl}piperazin-1-yl)phenyl]methane sulfonamide hydrochloride] | – | 9.28 | 8.89 | 8.89 | – |
| NCCc1c[nH]c2ccc(O)cc12 [serotonin, reference compound] | – | – | – | – | blocking the formation of cAMP (in words) (5-HT1B receptor; OK kidney epithelial cell line, forskolin-stimulated): capable of effectively blocking the formation of cAMP |
